Measurements taken from patent US20140213454A1, “METHODS TO INDUCE DROUGHT TOLERANCE IN CROPS” (Valent BioSciences Corporation, priority 2013, published 2014).

Experiments:
hybrid corn = test: Field trial 2012, time course of GA3 applications, hybrid corn (Example 3); format: in vivo; settings: 5.3 grams GA3/acre, extreme and exceptional drought, untreated 116
Description: In another field trial conducted in 2012 a time course of GA3 applications was performed. In this trial, hybrid corn was planted on April 24, 2012 at a density of 32,000 plants/acre. The plants were sprayed with GA3 at either the fifth leaf (V5) or tassel emergence (VT) on June 6 or July 7, respectively. This trial was subjected to extreme and exceptional drought in July during set and grain fill. As is shown in Table 3 below, the effect of the spray treatments of GA3 was dependent on the timing of the GA3 application.

corn [1] = test: Replicated corn trial 2012, moderate drought (Example 1); format: in vivo
Description: A replicated corn silage study was conducted in 2012. Corn was planted on May 18, 2012, and treated with two rates of GA3 at either the V2 (June 2) or V5 (June 18) growth stage, each time at two rates of GA3. Grain yields were estimated from harvests of 20 feet of row and converted to bushels of grain per acre. There was 1.5 inches of rain in the two weeks before planting but no rain from May 10 until May 29, when there was 0.7 inch rain. During June there was 2.9 inches of rain spread over the month. There were only two rain events from July 1-25, each of less than 0.2 inches. On July 26th there was approximately 2 inches of rain. Rainfall in June, July and August was about one third below the 30-year average for the area and the corn was under moderate drought conditions. Crop moisture conditions in July were described as ‘excessively dry’ by the National Climate Data Center of NOAA.

corn [2] = test: Replicated corn trial 2012, extreme and exceptional drought (Example 2); format: in vivo; settings: for Grain Yield: extreme and exceptional drought, untreated 88.45
Text: In a replicated trial conducted in 2012, the corn crop experienced extreme and exceptional drought in July, as described by the National Climate Data Center. Corn was planted at the end of April and treated with GA3 at either the V2 or V5 growth stages. Thirty two days after application, the GA3-treated corn was approximately 10 inches taller than the untreated on average.

perennial ryegrass = settings: Jiang and Fry 1998; cited from earlier work
corn [3] = settings: Robertson and Greenway 1973; cited from earlier work

Compound: C=C1C[C@]23C[C@@]1(O)CC[C@H]2[C@@]12C=C[C@H](O)[C@@](C)(C(=O)O1)[C@H]2[C@@H]3C(=O)O [GA3, gibberellic acid]
- Grain Yield (hybrid corn; application stage V5): 155 Bu/Acre
- Grain Yield (hybrid corn; application stage VT (tassel emergence)): 131 Bu/Acre
- Grain Yield (corn [1]; 3.2 grams GA3/acre, application timing V2, untreated 124.0): 141.2 Bu/Acre
- Grain Yield (corn [1]; 3.2 grams GA3/acre, application timing V5, untreated 124.0): 143.0 Bu/Acre
- Grain Yield (corn [1]; 6.4 grams GA3/acre, application timing V2, untreated 124.0): 141.1 Bu/Acre
- Grain Yield (corn [1]; 6.4 grams GA3/acre, application timing V5, untreated 124.0): 156.1 Bu/Acre
- Grain Yield (corn [2]; 3.2 grams GA3/acre, application stage V2): 119.70 Bu/Acre
- Grain Yield (corn [2]; 3.2 grams GA3/acre, application stage V5): 155.65 Bu/Acre
- Grain Yield (corn [2]; 6.4 grams GA3/acre, application stage V2): 119.83 Bu/Acre
- Grain Yield (corn [2]; 6.4 grams GA3/acre, application stage V5): 121.60 Bu/Acre
- Plant height, taller than the untreated on average (corn [2]; thirty two days after application at V2 or V5): approximately 10 inches

Compound: CCOC(=O)C1CC(=O)C(=C(O)C2CC2)C(=O)C1 (stereo not shown) [Trinexapac-ethyl, trinexapac-ethyl]
- Drought tolerance (perennial ryegrass): induce drought tolerance in perennial ryegrass

Compound: C[N+](C)(C)CCCl [chlormequat chloride]
- Drought resistance (corn [3]): induce drought resistance in corn
